Assay [1] has as its target SARS-COV2 Mpro (Severe acute respiratory syndrome coronavirus 2, UniProt P0DTD1). The assay is described as follows: COVID-19 (nCoV-2019, SARS-CoV2) Mpro enzymatic assay. The format is biochemical.
Assay [2] addresses 229E Mpro (Human coronavirus 229E, UniProt P0C6X1). As to the kind of experiment: 229E Mpro enzymatic assay. The format is biochemical, HCoV 229E. To be noted: Table 3.
Assay [3] has as its target OC43 Mpro (Human coronavirus OC43, UniProt P0C6X6). As to the kind of experiment: OC43 Mpro enzymatic assay. The format is biochemical, HCoV OC43. To be noted: Table 3.
Assay [4] concerns HCoV 229E. The assay is described as follows: HCoV 229E cytopathic effect (CPE) assay. The format is cell-based. To be noted: Table 4; CellTiter Glo; read-out: 229E CPE EC50.
For assay [5], the system named is HCov OC43. The assay is described as follows: HCoV OC43 cytopathic effect (CPE) assay. The format is cell-based. To be noted: Betacoronavirus 1, OC43; Table 4; CellTiter Glo. As to the method:
Compounds were assayed using standard methods against multiple coronaviral strains, including HCoV 229E and OC43 strains. The antiviral activity of compounds was calculated based on the protection of the virus-induced CPE at each concentration normalized by the virus control.
Reagents and instruments used in this assay include luminescent cell viability assay kit CellTiter Glo (Promega) and Microplate Reader Synergy2 (BioTek).
Reference compound used was remdesivir; detection reagent: CellTiter Glo.) The CPE were measured by CellTiter Glo following the manufacturer's manual. The antiviral activity of compounds was calculated based on the protection of the virus-induced CPE at each concentration normalized by the virus control.
The cytotoxicity of compounds was assessed under the same conditions, but without virus infection, in parallel. Cell viability was measured with CellTiter Glo. The antiviral activity and cytotoxicity of compounds were expressed as % Inhibition and % Viability, respectively, and calculated with formulas.

Assay [6] relates to SARS-CoV-2 WT replicon in Huh7 cells. As to the kind of experiment: microbe, parasite or virus in culture. The format is cell-based. To be noted: Severe acute respiratory syndrome coronavirus 2, Huh-7, 24 h.

OC43 Mpro, sequence (P0C6X6 3247-3549): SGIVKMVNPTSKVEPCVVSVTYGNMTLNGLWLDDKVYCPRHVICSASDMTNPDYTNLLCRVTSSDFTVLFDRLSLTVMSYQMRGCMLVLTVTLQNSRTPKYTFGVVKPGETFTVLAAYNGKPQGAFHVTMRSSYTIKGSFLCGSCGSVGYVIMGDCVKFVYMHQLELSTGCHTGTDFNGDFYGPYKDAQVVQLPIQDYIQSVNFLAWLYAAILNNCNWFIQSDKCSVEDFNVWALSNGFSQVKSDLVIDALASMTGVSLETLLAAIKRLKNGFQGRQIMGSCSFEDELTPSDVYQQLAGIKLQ
229E Mpro, sequence (P0C6X1 2966-3267): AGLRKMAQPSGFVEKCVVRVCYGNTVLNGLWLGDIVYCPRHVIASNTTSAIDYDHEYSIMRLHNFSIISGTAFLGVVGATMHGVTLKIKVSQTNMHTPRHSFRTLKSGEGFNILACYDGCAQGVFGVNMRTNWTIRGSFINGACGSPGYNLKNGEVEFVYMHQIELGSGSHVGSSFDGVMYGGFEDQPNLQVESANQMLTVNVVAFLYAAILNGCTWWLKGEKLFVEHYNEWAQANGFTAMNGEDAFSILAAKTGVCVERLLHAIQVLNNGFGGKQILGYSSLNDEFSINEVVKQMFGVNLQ

As to `N#C[C@H](C[C@@H]1CCNC1=O)NC(=O)C(CC1CCC(F)(F)CC1)NC(=O)[C@H](Cc1cccc2ccccc12)NC(=O)OCc1ccccc1` (stereo partly drawn) [Compound 128, benzylN-[(1S)-2-[[2-[[(1S)-1-cyano-2-[(3S)-2-oxopyrrolidin-3-yl]ethyl]amino]-1-[(4,4-difluorocyclohexyl)methyl]-2-oxo-ethyl]amino]-1-(1-naphthylmethyl)-2-oxo-ethyl]carbamate], the IC50 in assay [1], in assay [2] and in assay [3] was less than 2000 nM each time. For the same molecule, the EC50 in assay [4] and in assay [5] was less than 2000 nM each time.
Regarding `C[C@@H](OC1(C)CCC1)[C@H](NC(=O)C(F)(F)F)C(=O)N1C[C@H]2[C@@H]([C@H]1C(=O)N[C@H](C#N)C[C@@H]1CCCNC1=O)C2(C)C` [Compound 376], the EC50 in assay [6] is less than 2000 nM.
For the molecule `CC1(C)[C@@H]2[C@@H](C(=O)N[C@H](C#N)C[C@@H]3CCCNC3=O)N(C(=O)[C@@H](NC(=O)C(F)(F)F)C3CC3)C[C@@H]21` [Compound 377], the concentration for a half-maximal effect (EC50) in assay [6] is less than 2000 nM.
The same measure, in the same setting: in the case of `C[C@@H](OC1CC1)[C@H](NC(=O)C(F)(F)F)C(=O)N1C[C@H]2[C@@H]([C@H]1C(=O)N[C@H](C#N)C[C@@H]1CCCNC1=O)C2(C)C` [Compound 378] it was less than 2000 nM.

Source of the values: patent US20240277795A1, “INHIBITORS OF CYSTEINE PROTEASES AND METHODS OF USE THEREOF” (Pardes Biosciences, Inc., priority 2021, published 2024).
